Reference: US10479784B2, “Substituted pyrazin-2-amines as inhibitors of ATR kinase” (Vertex Pharmaceuticals Incorporated, priority 2008, dated 2019)

molecular target: full-length ATR (Homo sapiens (Human), UniProt Q13535); experiment: ATR Inhibition Assay (radioactive-phosphate incorporation); format: biochemical; conditions: read-out: ATR Ki
Outline: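 Ki(app) was derived by non-linear regression of background-corrected initial rates of 33P incorporation into an 800 μM target peptide, read by phosphocellulose filter scintillation counting. Reaction conditions: 5 nM full-length ATR, 10 μM [γ-33P]ATP, pH 7.5 Tris buffer with MgCl2 and DTT, 25 °C, 10-min preincubation, 24 h run.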

full-length ATR, sequence (Q13535 whole entry): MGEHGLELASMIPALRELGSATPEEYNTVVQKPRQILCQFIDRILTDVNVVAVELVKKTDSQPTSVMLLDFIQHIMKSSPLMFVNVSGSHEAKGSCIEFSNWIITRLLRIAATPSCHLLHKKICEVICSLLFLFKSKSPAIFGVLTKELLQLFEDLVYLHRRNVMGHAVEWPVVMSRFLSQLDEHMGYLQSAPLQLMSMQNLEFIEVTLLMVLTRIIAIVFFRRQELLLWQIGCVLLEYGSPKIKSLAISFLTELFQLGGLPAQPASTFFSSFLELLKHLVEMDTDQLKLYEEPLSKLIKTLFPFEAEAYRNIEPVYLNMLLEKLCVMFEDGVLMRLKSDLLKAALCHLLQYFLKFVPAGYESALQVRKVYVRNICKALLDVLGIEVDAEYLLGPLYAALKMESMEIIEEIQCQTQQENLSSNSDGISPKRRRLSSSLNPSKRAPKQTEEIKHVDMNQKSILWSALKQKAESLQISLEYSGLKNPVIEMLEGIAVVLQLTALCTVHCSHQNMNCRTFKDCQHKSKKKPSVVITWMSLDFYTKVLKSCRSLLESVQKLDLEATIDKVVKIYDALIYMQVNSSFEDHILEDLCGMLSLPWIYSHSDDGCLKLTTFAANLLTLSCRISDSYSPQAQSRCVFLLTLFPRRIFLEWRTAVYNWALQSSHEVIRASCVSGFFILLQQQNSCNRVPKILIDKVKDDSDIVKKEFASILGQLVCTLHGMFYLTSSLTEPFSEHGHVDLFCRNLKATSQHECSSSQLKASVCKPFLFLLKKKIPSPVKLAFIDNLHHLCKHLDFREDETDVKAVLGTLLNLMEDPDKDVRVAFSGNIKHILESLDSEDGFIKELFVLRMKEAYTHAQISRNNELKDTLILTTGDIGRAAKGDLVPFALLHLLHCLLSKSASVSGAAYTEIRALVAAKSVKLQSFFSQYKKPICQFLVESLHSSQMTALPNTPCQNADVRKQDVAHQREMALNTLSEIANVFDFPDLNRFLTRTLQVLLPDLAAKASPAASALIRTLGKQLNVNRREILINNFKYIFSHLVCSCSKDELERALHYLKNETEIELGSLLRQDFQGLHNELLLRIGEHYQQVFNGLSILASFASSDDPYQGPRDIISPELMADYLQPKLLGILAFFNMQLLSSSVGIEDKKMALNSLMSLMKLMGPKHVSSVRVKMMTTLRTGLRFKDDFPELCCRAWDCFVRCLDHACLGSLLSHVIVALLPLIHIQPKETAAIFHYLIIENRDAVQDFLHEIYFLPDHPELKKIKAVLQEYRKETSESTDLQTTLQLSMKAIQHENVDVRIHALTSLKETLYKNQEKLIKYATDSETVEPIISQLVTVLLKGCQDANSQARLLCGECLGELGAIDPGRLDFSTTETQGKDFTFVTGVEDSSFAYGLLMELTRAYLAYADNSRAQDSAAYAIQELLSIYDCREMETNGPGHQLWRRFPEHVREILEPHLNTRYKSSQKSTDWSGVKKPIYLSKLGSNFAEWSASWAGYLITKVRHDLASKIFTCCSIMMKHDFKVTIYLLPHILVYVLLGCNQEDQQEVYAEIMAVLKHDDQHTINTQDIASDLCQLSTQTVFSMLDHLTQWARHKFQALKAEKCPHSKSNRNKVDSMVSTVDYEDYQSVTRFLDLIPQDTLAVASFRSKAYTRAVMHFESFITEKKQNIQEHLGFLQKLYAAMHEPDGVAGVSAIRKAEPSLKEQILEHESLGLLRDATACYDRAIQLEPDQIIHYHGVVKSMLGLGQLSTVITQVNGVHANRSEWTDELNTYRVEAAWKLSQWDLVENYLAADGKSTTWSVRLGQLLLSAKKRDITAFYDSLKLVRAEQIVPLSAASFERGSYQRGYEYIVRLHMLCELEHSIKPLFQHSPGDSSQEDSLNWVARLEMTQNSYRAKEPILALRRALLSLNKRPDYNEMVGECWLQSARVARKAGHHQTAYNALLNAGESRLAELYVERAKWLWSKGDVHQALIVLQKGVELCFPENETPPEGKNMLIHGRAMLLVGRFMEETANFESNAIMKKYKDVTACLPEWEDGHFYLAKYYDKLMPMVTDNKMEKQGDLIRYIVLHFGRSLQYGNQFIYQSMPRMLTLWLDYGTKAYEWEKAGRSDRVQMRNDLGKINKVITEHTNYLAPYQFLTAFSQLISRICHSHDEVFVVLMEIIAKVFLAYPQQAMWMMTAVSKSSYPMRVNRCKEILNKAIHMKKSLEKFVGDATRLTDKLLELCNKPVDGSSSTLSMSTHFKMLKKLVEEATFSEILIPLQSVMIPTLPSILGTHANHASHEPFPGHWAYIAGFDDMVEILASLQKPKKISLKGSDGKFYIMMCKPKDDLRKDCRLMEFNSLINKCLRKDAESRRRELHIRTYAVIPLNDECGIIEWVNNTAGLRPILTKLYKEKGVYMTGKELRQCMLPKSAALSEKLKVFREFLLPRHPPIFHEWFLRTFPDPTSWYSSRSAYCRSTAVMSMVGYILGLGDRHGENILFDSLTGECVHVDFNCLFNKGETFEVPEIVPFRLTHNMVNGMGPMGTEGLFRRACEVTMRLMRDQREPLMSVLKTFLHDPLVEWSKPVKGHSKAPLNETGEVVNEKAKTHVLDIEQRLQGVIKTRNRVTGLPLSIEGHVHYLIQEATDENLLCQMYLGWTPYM

Ki [µM] | Compound
0.01 to 0.1 | Nc1ncc(-c2cccnc2)nc1-c1nnc(-c2cccs2)[nH]1 [IIIA-4, 5-(pyridin-3-yl)-3-(5-(thiophen-2-yl)-4H-1,2,4-triazol-3-yl)pyrazin-2-amine]
≤ 0.01 | CN(C)C(=O)c1ccc(-c2cnc(N)c(-c3nnc(-c4ccccc4)s3)n2)c(C#N)c1 [IVA-1, 4-[5-amino-6-(5-phenyl-1,3,4-thiadiazol-2-yl)pyrazin-2-yl]-3-cyano-N,N-dimethyl-benzamide]
≤ 0.01 | N#Cc1cc(C(=O)N2CCCNCC2)ccc1-c1cnc(N)c(-c2nnc(-c3ccccc3)s2)n1 [IVA-2, 2-[5-amino-6-(5-phenyl-1,3,4-thiadiazol-2-yl)pyrazin-2-yl]-5-(1,4-diazepane-1-carbonyl)benzonitrile]
0.1 to 5 | CN(C)C(=O)c1ccc(-c2cnc(N)c(-c3nnc(Nc4ccccc4C#N)s3)n2)cc1 [IVA-3, 4-[5-amino-6-[5-(2-cyanoanilino)-1,3,4-thiadiazol-2-yl]pyrazin-2-yl]-N,N-dimethyl-benzamide]
0.01 to 0.1 | COc1ncccc1NC(=O)c1nc(-c2ccc(S(C)(=O)=O)cc2)cnc1N [VII-1]
0.01 to 0.1 | Cc1cc(NC(=O)c2nc(-c3ccc(S(C)(=O)=O)cc3)cnc2N)ccn1 [VII-2]
0.1 to 5 | Cc1cc(NC(=O)c2nc(-c3ccc(S(C)(=O)=O)cc3)cnc2N)n(C)n1 [VII-3]
0.01 to 0.1 | CCc1ncccc1NC(=O)c1nc(-c2ccc(S(C)(=O)=O)cc2)cnc1N [VII-4]
0.01 to 0.1 | Cc1ncccc1NC(=O)c1nc(-c2ccc(S(C)(=O)=O)cc2)cnc1N [VII-5]
0.01 to 0.1 | CS(=O)(=O)c1ccc(-c2cnc(N)c(C(=O)Nc3ccccn3)n2)cc1 [VII-6]
0.01 to 0.1 | CS(=O)(=O)c1ccc(-c2cnc(N)c(C(=O)Nc3ncns3)n2)cc1 [VII-7]
0.01 to 0.1 | Cc1cnc(NC(=O)c2nc(-c3ccc(S(C)(=O)=O)cc3)cnc2N)s1 [VII-8]
≤ 0.01 | COc1ccncc1NC(=O)c1nc(-c2ccc(S(C)(=O)=O)cc2)cnc1N [VII-9]
0.1 to 5 | CNCc1ccc(NC(=O)c2nc(-c3ccc(S(C)(=O)=O)cc3)cnc2N)cc1 [VII-10]
0.01 to 0.1 | CNCc1ccc(NC(=O)c2nc(-c3ccc(S(=O)(=O)C(C)C)cc3)cnc2N)cc1 [VII-11]
≤ 0.01 | CNCc1cccc(NC(=O)c2nc(-c3ccc(S(=O)(=O)C(C)C)cc3)cnc2N)c1 [VII-12]
0.01 to 0.1 | CNCc1cccc(NC(=O)c2nc(-c3ccc(S(C)(=O)=O)cc3)cnc2N)c1 [VII-13]

More lines, now with the values behind:

Compound | Ki [µM]
CNCc1ccc(-c2cc(-c3nc(-c4ccc(S(=O)(=O)C5CCOC5)cc4)cnc3N)on2)c(F)c1 (stereo not shown) [IIA-16, 3-[3-[2-fluoro-4-(methylaminomethyl)phenyl]isoxazol-5-yl]-5-(4-tetrahydrofuran-3-ylsulfonylphenyl)pyrazin-2-amine] | ≤ 0.01
Cc1ccc2nc(-c3nc(-c4ccc(C(=O)N5CCCNCC5)cc4)cnc3N)[nH]c2c1 [III-1, (4-(5-amino-6-(6-methyl-1H-benzo[d]imidazol-2-yl)pyrazin-2-yl)phenyl) (1,4-diazepan-1-yl)methanone] | 0.01 to 0.1
Cc1ccc2nc(-c3nc(-c4ccc(C(=O)N5CCC(N(C)C)CC5)cc4)cnc3N)[nH]c2c1 [III-2, (4-(5-amino-6-(6-methyl-1H-benzo[d]imidazol-2-yl)pyrazin-2-yl)phenyl)(4-(dimethylamino)piperidin-1-yl)methanone] | 0.01 to 0.1
Cc1ccc2nc(-c3nc(-c4ccc(C(=O)N5CCNCC5)cc4)cnc3N)[nH]c2c1 [III-3, (4-(5-amino-6-(6-methyl-1H-benzo[d]imidazol-2-yl)pyrazin-2-yl)phenyl)(piperazin-1-yl)methanone] | 0.01 to 0.1
Cc1ccc2nc(-c3nc(-c4ccc(C(=O)N5CCN(C)CC5)cc4)cnc3N)[nH]c2c1 [III-4, (4-(5-amino-6-(6-methyl-1H-benzo[d]imidazol-2-yl)pyrazin-2-yl)phenyl)(4-methylpiperazin-1-yl)methanone] | 0.01 to 0.1
Cc1ccc2nc(-c3nc(-c4ccc(C(=O)N5CCCN(C)CC5)cc4)cnc3N)[nH]c2c1 [III-5, (4-(5-amino-6-(6-methyl-1H-benzo[d]imidazol-2-yl)pyrazin-2-yl)phenyl)(4-methyl-1,4-diazepan-1-yl)methanone] | 0.01 to 0.1
Nc1ncc(-c2ccc(C(=O)NCCN3CCCC3)cc2)nc1-c1nc2ccccc2[nH]1 [III-6, 4-(5-amino-6-(1H-benzo[d]imidazol-2-yl)pyrazin-2-yl)-N-(2-(pyrrolidin-1-yl)ethyl)benzamide] | 0.01 to 0.1
(R)-3-amino-N-phenyl-6-(4-(2-(pyrrolidin-1-ylmethyl)pyrrolidine-1-carbonyl)phenyl)pyrazine-2-carboxamide [Compound I-42] | 0.1 to 5
